In assay [1] the test system is erythrocyte concentrate. To be noted: presence of DEHP plasticizer in the storage container; cited from earlier work.
In assay [2] the test system is erythrocyte concentrate. The assay is described as follows: Hemolysis of erythrocyte concentrate after 42 days of refrigerated storage. The class given is cell-based. To be noted: FIG. 1. The source says:
(§1) Referring now to FIGS. 1-2, test results of two different erythrocyte concentrates are illustrated. The first erythrocyte concentrate is identified by, number 2032 and the second erythrocyte concentrate is identified by number 2086. Each of the samples was divided into four different containers. […] Also, for each sample, two of the containers included a gas system of 99.9% by volume xenon gas. The graphs indicate which container included or were absent xenon gas and/or DEHP plasticiser. The testing protocol for the containers was as follows:
(§2) For Containers That Are Absent Xe Gas:
(§3) a. Place non-Xe units flat on a rotator for 3.5 hours.
(§4) b. Place non-Xe units in blood bank refrigerator at the same time as the Xe units.
(§5) For Containers That Include Xe Gas:
(§6) a. Place Xe units flat in a pretested hyperatmic chamber.
(§7) b. Evacuate the chamber with vacuum to remove oxygen from the Xe units.
(§8) c. Pressurize the chamber with Xe gas at 4 atm.
(§9) d. Vent the chamber of Xe gas.
(§10) e. Pressurize the chamber with Xe gas at 4 atm.
(§11) f Vent the chamber of Xe gas.
(§12) g. Pressurize the chamber with Xe gas at 4 atm.
(§13) h. Vent the chamber of Xe gas.
(§14) i. Pressurize the chamber with Xe gas at 4 atm.
(§15) j. Place the pressurized Xe unit on an agitator for 3.5 h.
k. Place the pressurized Xe unit in a blood bank refrigerator at the same time as the non-Xe units.
While the Xe units and non-Xe units are in the blood bank refrigerator, the Xe units were periodically checked over a 42 day period to ensure that the pressure in the Xe units exceeded 1 atm. After 42 days, all of the units were removed from the blood bank refrigerator. After the units were removed from the blood bank refrigerator, the following procedures where conducted on the units:
1. Immediately place the pressurized Xe units and non-Xe units on a platelet to and-fro horizontal agitator for 10 minutes.
2. Depressurize all of the units by opening a value on the container.
3. Place all units on a bench top and hold for 3 hours.
4. Following the 3 hour hold period, test the samples for percentage of hemolysis and the ATP content.

Assay [3] deals with erythrocyte concentrate. Description: ATP content of erythrocyte concentrate after 42 days of refrigerated storage. In kind it is cell-based. To be noted: FIG. 2, samples 2032 and 2086, 99.9% by volume xenon gas, treated vs not treated.
Source text: as §1, §2, §3, §4, §5, §6, §7, §8, §9, §10, §11, §12, §13, §14, §15
k. Place the pressurized Xe unit in a blood bank refrigerator at the same time as the non-Xe units. […]

For `CCCCC(CC)COC(=O)c1ccccc1C(=O)OCC(CC)CCCC` (stereo not drawn) [DEHP plasticiser, his (2-ethylhexyl) phthalate], the “number of erythrocytes that lysed during the storage of the erythrocyte concentrate” value in the assay with erythrocyte concentrate [1] is “reduces the number of erythrocytes that lysed”. Further, the hemolysis result in the assay on erythrocyte concentrate [2] (42 days, DEHP plasticiser added to a container that included xenon gas) is “further reduction of hemolysis”. For the same compound, the amounts of hemolysis result in the assay on erythrocyte concentrate [2] (42 days, containers that include DEHP plasticiser vs containers without) is given as “Reduced amounts of hemolysis”.
Turning to `[Xe]` [xenon gas, Xenon], the “ATP content in the erythrocyte concentrate” value in the assay with erythrocyte concentrate [3] is recorded as “higher ATP content”. Besides, in the assay on erythrocyte concentrate [2] (42 days, xenon gas with no DEHP plasticiser vs container with DEHP plasticiser and no xenon gas), the amounts of hemolysis result was “lower amounts of hemolysis”. Also, in the assay with erythrocyte concentrate [2] (samples 2032 and 2086, 99.9% by volume xenon gas at 4 atm, 42 days in blood bank refrigerator, treated vs not treated with xenon gas), the percent of hemolysis result was “significantly less”.

(Values after patent US20140154666A1, “Erythrocyte Preservation Method” (Trustees of Dartmouth College, priority 2012, published 2014).)
